Measured values reported in patent US20070275936A1, “Formulations and Treatment Methods” (priority 1998, published 2007).

Legend:
[1] = test system: pentosephosphate shunt (PPS) activity in normal human RBC; test: PPS flux in whole normal human RBC; type: cell-based
Description: The effect of BrEA on pentosephosphate shunt (PPS) activity in normal human RBC was examined using whole cells. Since glucose-6-phosphate dehydrogenase (“G6PD”) is the limiting enzyme of the PPS, PPS flux measurement is considered to better reflect G6PD activity in the whole cell compared to G6PD activity measurement in a cell lysate. […] PPS flux and G6PD activity in the whole RBC depends on a number of factors (the concentration of NADPH, NAD, and ATP, and intracellular pH), which are kept constant if the measurement is performed in the lysate and may vary in the whole RBC. Levels of G6PD activity in cells is considerably above normal basal needs and inhibition of overall G6PD activity might have no or minor consequence on PPS flux in the whole cell. […] A series of experiments were performed using varying amounts of BrEA and PPS flux was measured in unstimulated basal RBC and in methylene-blue (MB)-stimulated RBC.
Different concentrations of BrEA (0.3, 3.5 and 7 micromolar, final) were supplemented to suspensions of washed RBC suspended in RPMI, pH 7.4 at 10% hematocrit, whereby PPS flux was immediately measured without further incubation and without further washings.
In these experiments, different concentrations of BrEA ˜0.8, 8 and 80 micromolar, final) were supplemented to suspensions of washed RBC suspended in RPMI, pH 7.4 at 10% hematocrit. After a 90-min incubation at 37° C. with and without BrEA, PPS flux was measured.

HIV-1 viral RNA = test: Human HIV clinical protocol: viral load (bDNA); type: in vivo; settings: after three 5-day courses of intermittent dosing over 153 days
Experimental: Otherwise untreated patients with CD4 counts of ≧200/μL and HIV-1 viral RNA between 5,000 and 1,000,000 copies/mL (branched-DNA, version 3.0, Bayer, Tarrytown, N.Y.) provided informed consent and were enrolled into a Phase I/II dose-escalation study of the safety and efficacy of intramuscular injections of BrEA. The protocol was conducted in South Africa. In the first cohort, four patients received an initial injection of 1 mL (50 mg), followed by a safety and pharmocokinetic study for seven days, and then received five daily injections of 1 mL (50 mg). The second cohort of 8 patients was randomized in a 1:2 ratio to receive either 50 mg (1 mL) or 100 mg (2 mL) on the same schedule. […]
CD4 counts were assessed using a FACScount (BDIS), and viral loads were measured using the bDNA assay (Bayer). […]
Statistical analysis of changes in surface phenotypes, hematological, and viral parameters were performed by calculating the area under the curve (AUC) of the percentage difference from baselines (phenotype), percentage difference from the mean of screen and baseline values (hematology), or log10 change from the mean of screen and baseline values (plasma viral RNA) for individual patients. AUC were calculated using the actual number of days between analysis visits for each patient. […]

`C[C@]12CC[C@H](O)C[C@@H]1CC[C@@H]1[C@@H]2CC[C@]2(C)C(=O)[C@H](Br)C[C@@H]12` [BrEA, 16α-bromo-3β-hydroxy-5α-androstane-17-one] was tested, and the PPS flux ([1]; 0.3 μM, MB stimulated RBC, no incubation, DMSO control 5090) was 5000 micromoles/hour/ml RBC, the PPS flux ([1]; 0.3 μM, unstimulated RBC, no incubation, DMSO control 270) was 250 micromoles/hour/ml RBC and the PPS flux ([1]; 0.8 μM, MB stimulated, 90-min incubation, average of 3 experiments, DMSO control 4890) was 4930 micromoles/hour/ml RBC. The PPS flux ([1]; 0.8 μM, unstimulated, 90-min incubation at 37° C., average of 3 experiments, DMSO control 480) was 410 micromoles/hour/ml RBC, the PPS flux ([1]; 3.5 μM, MB stimulated RBC, no incubation, DMSO control 5090) was 4950 micromoles/hour/ml RBC and the PPS flux ([1]; 3.5 μM, unstimulated RBC, no incubation, DMSO control 270) was 270 micromoles/hour/ml RBC. The PPS flux ([1]; 7 μM, MB stimulated RBC, no incubation, DMSO control 5090) was 4660 micromoles/hour/ml RBC, the “inhibition of MB-stimulated PPS flux” value ([1]; 7 μM, no incubation) was “minor inhibition” and the PPS flux ([1]; 7 μM, unstimulated RBC, no incubation, DMSO control 270) was 295 micromoles/hour/ml RBC. It also gave a PPS flux ([1]; 8 μM, MB stimulated, 90-min incubation, average of 3 experiments, DMSO control 4890) of 4430 micromoles/hour/ml RBC, a PPS flux ([1]; 8 μM, unstimulated, 90-min incubation, average of 3 experiments, DMSO control 480) of 450 micromoles/hour/ml RBC and a PPS flux ([1]; 80 μM, MB stimulated, 90-min incubation, average of 3 experiments, DMSO control 4890) of 3660 micromoles/hour/ml RBC. The PPS flux ([1]; 80 μM, unstimulated, 90-min incubation, average of 3 experiments, DMSO control 480) was 450 micromoles/hour/ml RBC, the inhibition at 8 µM ([1]; Homo sapiens, 1.5 h, 8 micromolar, 90-min incubation, p=0.006 vs control+DMSO, read-out: Inhibition of MB-stimulated PPS flux) was 10% and the inhibition at 80 µM ([1]; Homo sapiens, 1.5 h, 80 micromolar, 90-min incubation, p=0.002 vs control+DMSO, read-out: Inhibition of MB-stimulated PPS flux) was 25%. The “change in viral load” value (HIV-1 viral RNA) was “no overall decrease in viral load”.
